US20240173419A1, “CDK2 DEGRADERS AND USES THEREOF” (Kymera Therapeutics, Inc., priority 2022, published 2024)

Molecular target: T1, CDK2 (Homo sapiens, UniProt P24941)
T1 construct: endogenous in cells; host or cells: MKN1 cells
Test: CDK2 degradation in MKN1 cells (AlphaLISA)
Type: cell-based
Conditions: for CDK2 degradation 14 h: Average Dmax % / DC50: 14 h incubation; for DC50: read-out: CDK2 degradation 14 h: Mean external-Abs DC50
Experimental: Degradation of CDK2 in MKN1 cells was measured using AlphaLISA technology (PerkinElmer ALSU-TCDK2-A10K). MKN1 cells were maintained in RPMI1640 medium containing 10% FBS+1× penn/strep. Cells were seeded in 96-well plates (Corning 3599) at a density of 2e4 cells per well in 80 μL of fresh complete growth medium. Cells were incubated overnight at 37° C., 5% CO2. Compounds were then added to the cell assay plates with a final top concentration of 10 μM in a 1:5 dilution series with a total of 11 doses (0.001 nM-10 μM). The final volume per well was 160 μL and the final DMSO concentration was 0.1%. Additionally, wells containing no cells and only complete growth medium were also maintained on the cell assay plates (‘no cell’ wells) and processed along with experimental wells. After 14 hour-incubation at 37° C., 5% CO2, the medium was removed and the cells were washed once with 100 μL of 1×PBS. Following removal of PBS, 40 μL of 1× Lysis Buffer containing 1× protease and phosphatase inhibitors (Roche 4693116001; Roche 4906837001) were added to each well. The cell assay plate was agitated on a plate shaker at 350 rpm for 10 minutes at room temperature. 10 μL of each cell lysate were transferred to a 384-well plate (PerkinElmer 6007290). 10 μL of control lysates (from PerkinElmer ALSU-TCDK2-A10K kit) were added to separate wells to generate a standard curve. Activation Buffer was prepared by diluting 25-fold in combined Reaction Buffer 1 and Reaction Buffer 2. Acceptor Beads were diluted 50-fold in combined Reaction Buffers. 5 μL of Acceptor Mix were added to each well. The plate was sealed with Topseal-Aadhesive film, covered with foil, and incubated in the dark for 1 hour at room temperature. Under subdued light, the Donor Beads were diluted 50-fold in Dilution Buffer. 5 μL of Donor Mix were added to each well under subdued light. The plate was sealed with Topseal-A adhesive film, covered with foil, and incubated in the dark for 1 hour at room temperature. Under subdued light, the plates were analyzed on an EnVision Microplate Reader (PerkinElmer Model 2009-0030). The average signal from ‘no cell’ wells was subtracted from the signal in experimental wells prior to calculating Alpha signal for test compounds and negative control (0.100 DMSO). The data were analyzed using Xlfit (v5.3. 1.3) and the dose-dependent CDK2 degradation data were fit using a four-parameter logistic model to calculate DC50.

Row | SMILES | CDK2 degradation 14 h: Average Dmax % | DC50 | Dmax (MKN-1, 14 h incubation)
1 | Cc1cc(S(=O)(=O)C2CC3(CCN(CC4CCN(c5ccc(NC6CCC(=O)NC6=O)cc5)CC4)CC3)C2)ccc1Nc1ncc2cc(Cl)c(=O)n(C3CCCC3)c2n1 (stereo not drawn) [I-37] | B (B (>50% -75%)) | 0.1 to 0.5 µM | –
2 | Cc1cc(S(=O)(=O)C2CCN(CCN3CCN(c4cccc5c4n(C)c(=O)n5C4CCC(=O)NC4=O)CC3=O)CC2)ccc1Nc1ncc2cc(Cl)c(=O)n(C3CCCC3)c2n1 (stereo not drawn) [I-43] | A (A (>75% o)) | 0.1 to 0.5 µM | –
3 | Cc1cc(S(=O)(=O)C2CC3(CCN(CC4(F)CCN(c5cccc6c5n(C)c(=O)n6C5CCC(=O)NC5=O)CC4)CC3)C2)ccc1Nc1ncc2cc(Cl)c(=O)n(C3CCCC3)c2n1 (stereo not drawn) [I-45] | A (A (>75% o)) | 0.1 to 0.5 µM | –
4 | Cc1cc(S(=O)(=O)C2CCN(C(=O)CN3CCN(c4cccc5c4n(C)c(=O)n5C4CCC(=O)NC4=O)CC3)CC2)ccc1Nc1ncc2cc(Cl)c(=O)n(C3CCCC3)c2n1 (stereo not drawn) [I-48] | B (B (>50% -75%)) | < 0.1 µM | –
5 | Cc1cc(S(=O)(=O)C2CCN(CCN3CCN(c4cccc5c4n(C)c(=O)n5C4CCC(=O)NC4=O)CC3)CC2)ccc1Nc1ncc2c(n1)N(C1CCCC1)C(=O)C21CC1 (stereo not drawn) [I-50, 3-[4-[4-[2-[4-[4-[(7′-Cyclopentyl-6′-oxo-spiro[cyclopropane-1,5′-pyrrolo[2,3-d]pyrimidine]-2′-yl)amino]-3-methyl-phenyl]sulfonyl-1-piperidyl]ethyl]piperazin-1-yl]-3-methyl-2-oxo-benzimidazol-1-yl]piperidine-2,6-dione] | – | < 0.1 µM | > 75%
6 | Cc1cc(S(=O)(=O)C2CCN(C3CC4(CCN(c5cccc6c5n(C)c(=O)n6C5CCC(=O)NC5=O)CC4)C3)CC2)ccc1Nc1ncc2c(n1)N(C1CCCC1)C(=O)C21CC1 (stereo not drawn) [I-52] | B (B (>50% -75%)) | 0.1 to 0.5 µM | –
7 | Cc1cc(S(=O)(=O)[C@H]2CC[C@H](CN(C)C3CCN(c4cccc5c4n(C)c(=O)n5C4CCC(=O)NC4=O)CC3)CC2)ccc1Nc1ncc2c(n1)N(C1CCCC1)C(=O)C21CC1 (stereo partly drawn) [I-53] | A (A (>75% o)) | < 0.1 µM | –

Second part, the molecule after the results:

Row | CDK2 degradation 14 h: Average Dmax % | DC50 | Dmax (MKN-1, 14 h incubation) | SMILES
8 | B (B (>50% -75%)) | < 0.1 µM | – | Cc1cc(S(=O)(=O)C2CC3(CCN(CC4CCN(c5ccc(NC6CCC(=O)NC6=O)cc5F)CC4)CC3)C2)ccc1Nc1ncc2cc(Cl)c(=O)n(C3CCCC3)c2n1 (stereo not drawn) [I-36]
9 | A (A (>75% o)) | < 0.1 µM | – | Cc1cc(S(=O)(=O)C2CC3(CCN(CC4CCN(c5ccc6c(c5F)n(C)c(=O)n6C5CCC(=O)NC5=O)CC4)CC3)C2)ccc1Nc1ncc2cc(Cl)c(=O)n(C3CCCC3)c2n1 (stereo not drawn) [I-38]
10 | B (B (>50% -75%)) | < 0.1 µM | – | Cc1cc(S(=O)(=O)C2CCC(N3CC4(CCN(c5cccc6c5n(C)c(=O)n6C5CCC(=O)NC5=O)CC4)C3)CC2)ccc1Nc1ncc2c(n1)N(C1CCCC1)C(=O)C21CC1 (stereo not drawn) [I-39]
11 | A (A (>75% o)) | < 0.1 µM | – | Cc1cc(S(=O)(=O)C2CC3(CCN(CCC4CCN(c5cccc6c5n(C)c(=O)n6C5CCC(=O)NC5=O)CC4)CC3)C2)ccc1Nc1ncc2cc(Cl)c(=O)n(C3CCCC3)c2n1 (stereo not drawn) [I-40]
12 | A (A (>75% o)) | < 0.1 µM | – | Cc1cc(S(=O)(=O)C2CC3(CCN(CC4CCN(c5cccc6c5n(C)c(=O)n6C5CCC(=O)NC5=O)CC4)CC3)C2)ccc1Nc1ncc2c(n1)N(C1CCCC1)C(=O)C21CC1 (stereo not drawn) [I-42]
13 | A (A (>75% o)) | < 0.1 µM | – | Cc1cc(S(=O)(=O)C2CC3(CCN(CC4CCN(c5cccc6c5n(C)c(=O)n6C5CCC(=O)NC5=O)CC4)CC3)C2)ccc1Nc1ncc2cc(Cl)c(=O)n(C3CCCC34CC4)c2n1 (stereo not drawn) [I-44]
14 | A (A (>75% o)) | < 0.1 µM | – | Cc1cc(S(=O)(=O)C2CCC(CN(C)C3CCN(c4cccc5c4n(C)c(=O)n5C4CCC(=O)NC4=O)CC3)CC2)ccc1Nc1ncc(C(F)(F)F)c(-c2cnn(C)c2)n1 (stereo not drawn) [I-46]
15 | A (A (>75% o)) | < 0.1 µM | – | Cc1cc(S(=O)(=O)C2CCN(CCCN3CCN(c4cccc5c4n(C)c(=O)n5C4CCC(=O)NC4=O)CC3)CC2)ccc1Nc1ncc2cc(Cl)c(=O)n(C(C)C)c2n1 (stereo not drawn) [I-47]
